Earlier results as cited in patent US10172867B2, “Afobazole nanoparticles formulation for enhanced therapeutics” (University of South Florida, priority 2014, dated 2019).

Tests used:
[1] = test system: σ-1 receptor; conditions: Cuevas et al., 2011
[2] = target: σ-2 receptor (Homo sapiens, UniProt Q5BJF2); conditions: Cuevas et al., 2011
[3] = test system: muscarinic receptors; conditions: Seredenin et al., 2009
[4] = test system: in vitro ischemia model; conditions: Cuevas et al.
[5] = in vivo

Chain of σ-2 receptor (Q5BJF2 whole entry, species assumed): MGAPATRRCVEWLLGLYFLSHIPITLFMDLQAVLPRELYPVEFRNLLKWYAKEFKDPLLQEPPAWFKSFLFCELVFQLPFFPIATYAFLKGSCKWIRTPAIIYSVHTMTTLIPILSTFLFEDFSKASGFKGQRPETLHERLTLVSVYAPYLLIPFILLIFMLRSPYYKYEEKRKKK

For `CCOc1ccc2nc(SCCN3CCOCC3)[nH]c2c1` [Afobazole, 5-ethoxy-2[2-(morpholine)-ethylthio]benzimidazole], the σ-1 receptor activity [1] is given as “agonist”, the σ-2 receptor activity [2] is given as “agonist” and the “interaction with muscarinic receptors” value [3] is given as “does not interact”. The neuroprotection ([4]; in vitro ischemia model, 2011) was “provides neuroprotection”, the “ischemia-induced Ca2+ overload” value ([4]; via activation of σ-1 receptors, Katnik et al., 2006, 2011a) was “decrease in ischemia-induced Ca^2+ overload” and the brain penetration [5] was “limited brain penetration”. For the same compound, the half-life [5] was “short half-life”.
